Data taken from US10774071B2, “PD-1/PD-L1 inhibitors” (Gilead Sciences, Inc., priority 2018, dated 2020).
pIC50: −log10 of the molar value.

What was measured:
PD-L1 = PD-L1 (Homo sapiens (Human), UniProt Q9NZQ7); assay: PD-L1/PD-L1 dimerization biochemical protein-protein interaction assay (ALPHA); assay type: binding; settings: 0.5 nM His tagged PD-L1 and 0.5 nM FLAG tagged PD-L1, Table 4B, read-out: AC50 PDL1 Dimer 1 nM
PD-1/PD-L1 = PD-1/PD-L1 (Homo sapiens (Human), UniProt Q9NZQ7); assay: PD-1/PD-L1 biochemical protein-protein interaction assay (ALPHA); assay type: binding; settings: 0.3 nM His tagged PD-L1, 2.5 nM biotinylated Fc-PD-1, Table 3B, read-out: IC50 PD-L1-PD1
Chain of PD-1/PD-L1 (Q9NZQ7 19-238): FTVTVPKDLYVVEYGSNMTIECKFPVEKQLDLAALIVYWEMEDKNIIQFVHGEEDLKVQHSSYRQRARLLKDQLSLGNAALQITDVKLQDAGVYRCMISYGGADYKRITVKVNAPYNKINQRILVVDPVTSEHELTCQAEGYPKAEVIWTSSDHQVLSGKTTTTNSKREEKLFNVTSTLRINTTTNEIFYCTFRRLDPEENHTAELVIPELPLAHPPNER

Chain of PD-L1 (Q9NZQ7 19-238): as above
Chain of PD-L1 (Q9NZQ7 19-238): as above

| AC50 (PD-L1) | pIC50 (PD-1/PD-L1) | Compound |
| --- | --- | --- |
| 12 nM | 10.19 | COc1nc(-c2cccc(-c3cccc4c3CC[C@@H]4Oc3nc(OC)c(CN4CC5CCC4(C(=O)O)CC5)cc3Cl)c2Cl)ccc1CNC[C@@H]1CCC(=O)N1 [B-231] |
| 0.518 nM | 10.19 | COc1nc(-c2cccc(-c3cccc4c3CC[C@@H]4Oc3nc(OC)c(CN4CCC5CC4(C(=O)O)C5)cc3C(F)(F)F)c2Cl)ccc1CNC[C@@H]1CCC(=O)N1 [B-233] |
| 3.18 nM | 10.19 | COc1nc(-c2cccc(-c3cccc4c3CC[C@@H]4Oc3nc(OC)c(CN4C[C@H]5C[C@H]5[C@H]4C(=O)O)cc3C(F)(F)F)c2Cl)ccc1CNC[C@@H]1CCC(=O)N1 [B-234] |
| 2.42 nM | 10.19 | CC[C@@](C)(NCc1cc(C(F)(F)F)c(O[C@H]2CCc3c(-c4cccc(-c5ccc(CNC[C@@H]6CCC(=O)N6)c(OC)n5)c4Cl)cccc32)nc1OC)C(=O)O [B-235] |
| 3.02 nM | 10.19 | CC[C@](C)(NCc1cc(C(F)(F)F)c(O[C@H]2CCc3c(-c4cccc(-c5ccc(CNC[C@@H]6CCC(=O)N6)c(OC)n5)c4Cl)cccc32)nc1OC)C(=O)O [B-236] |
| 20.7 nM | 10.19 | COc1nc(-c2cccc(-c3cccc4c3CC[C@@H]4Oc3nc(OC)c(CN4CCC[C@@]4(C)C(=O)O)cc3C)c2Cl)ccc1CNC[C@@H]1CCC(=O)N1 [B-237] |
| 34.9 nM | 10.19 | COc1nc(-c2cccc(-c3cccc4c3CC[C@@H]4Oc3nc(OC)c(CN4CCC[C@]4(C)C(=O)O)cc3C)c2Cl)ccc1CNC[C@@H]1CCC(=O)N1 [B-238] |
| 21.3 nM | 10.19 | COc1nc(-c2cccc(-c3cccc4c3CC[C@@H]4Oc3nc(OC)c(CNCC(=O)O)cc3C)c2Cl)ccc1CNC[C@@H]1CCC(=O)N1 [B-239] |
| 12.1 nM | 10.19 | COc1nc(-c2cccc(-c3cccc4c3CC[C@@H]4Oc3nc(OC)c(CNC(C)(CO)C(=O)O)cc3C)c2Cl)ccc1CNC[C@@H]1CCC(=O)N1 (some centres unmarked) [B-240] |
| 7.58 nM | 10.19 | COc1nc(-c2cccc(-c3cccc4c3CC[C@@H]4Oc3nc(OC)c(CN[C@@H](C)C(=O)O)cc3C)c2Cl)ccc1CNC[C@@H]1CCC(=O)N1 [B-241] |
| 18.9 nM | 10.19 | COc1nc(-c2cccc(-c3cccc4c3CC[C@@H]4Oc3nc(OC)c(CN[C@H](C)C(=O)O)cc3C)c2Cl)ccc1CNC[C@@H]1CCC(=O)N1 [B-242] |
| 15.8 nM | 10.19 | COc1nc(O[C@H]2CCc3c(-c4cccc(-c5cc(C)c(CNC[C@@H]6CCC(=O)N6)c(OC)n5)c4Cl)cccc32)c(C)cc1CNC(C)(C)C(=O)O [B-243] |
| 18 nM | 10.19 | COc1nc(O[C@H]2CCc3c(-c4cccc(-c5cc(C)c(CNC[C@@H]6CCC(=O)N6)c(OC)n5)c4Cl)cccc32)c(C)cc1CNC1(C(=O)O)CC1 [B-244] |
| 5.94 nM | 10.19 | COc1nc(-c2cccc(-c3cccc4c3CC[C@@H]4Oc3nc(OC)c(CNC(C)(C)C(=O)O)cc3C)c2Cl)ccc1CNC[C@@H]1CCC(=O)N1 [B-245] |
| 14 nM | 10.19 | COc1nc(-c2cccc(-c3cccc4c3CC[C@@H]4Oc3nc(OC)c(CNC4(C(=O)O)CC4)cc3C)c2Cl)ccc1CNC[C@@H]1CCC(=O)N1 [B-246] |
| 10.4 nM | 10.19 | COc1nc(-c2cccc(-c3cccc4c3CC[C@@H]4Oc3nc(OC)c(CNC4(C(=O)O)CC4)nc3C(F)(F)F)c2Cl)ccc1CNC[C@@H]1CCC(=O)N1 [B-247] |
| 15.9 nM | 10.01 | COc1nc(-c2cccc(-c3cccc4c3CC[C@@H]4Oc3nc(OC)c(CNCC(=O)N(C)C)cc3C(F)(F)F)c2Cl)ccc1CNC[C@@H]1CCC(=O)N1 [B-248] |

| AC50 (PD-L1) | pIC50 (PD-1/PD-L1) | Compound |
| --- | --- | --- |
| 35.5 nM | 10.19 | CNC(=O)[C@H](C)NCc1cc(C(F)(F)F)c(O[C@H]2CCc3c(-c4cccc(-c5ccc(CNC[C@@H]6CCC(=O)N6)c(OC)n5)c4Cl)cccc32)nc1OC [B-249] |
| 36.4 nM | 9.63 | CNC(=O)CNCc1cc(C(F)(F)F)c(O[C@H]2CCc3c(-c4cccc(-c5ccc(CNC[C@@H]6CCC(=O)N6)c(OC)n5)c4Cl)cccc32)nc1OC [B-250] |
| 17.7 nM | 10.19 | COc1nc(-c2cccc(-c3cccc4c3CC[C@@H]4Oc3nc(OC)c(CNCC4(C(=O)O)CC4)cc3C(F)(F)F)c2Cl)ccc1CN[C@H]1C[C@](C)(O)C1 [B-251] |
| 18 nM | 10.19 | COc1nc(-c2cccc(-c3cccc4c3CC[C@@H]4Oc3nc(OC)c(CNCC(C)(C)C(=O)O)cc3C(F)(F)F)c2Cl)ccc1CN[C@H]1C[C@](C)(O)C1 [B-252] |
| 8.73 nM | 10.19 | COc1nc(-c2cccc(-c3cccc4c3CC[C@@H]4Oc3nc(OC)c(CN[C@H](C)CC(=O)O)cc3C(F)(F)F)c2Cl)ccc1CN[C@H]1C[C@](C)(O)C1 [B-253] |
| 11.4 nM | 10.19 | COc1nc(-c2cccc(-c3cccc4c3CC[C@@H]4Oc3nc(OC)c(CNCCC(=O)O)cc3C(F)(F)F)c2Cl)ccc1CN[C@H]1C[C@](C)(O)C1 [B-254] |
| 7.89 nM | 10.19 | COc1nc(-c2cccc(-c3cccc4c3CC[C@@H]4Oc3nc(OC)c(CN[C@H](C(=O)O)C4CC4)cc3C(F)(F)F)c2Cl)ccc1CN[C@H]1C[C@](C)(O)C1 [B-255] |
| 13.1 nM | 10.19 | COC[C@H](NCc1cc(C(F)(F)F)c(O[C@H]2CCc3c(-c4cccc(-c5ccc(CN[C@H]6C[C@](C)(O)C6)c(OC)n5)c4Cl)cccc32)nc1OC)C(=O)O [B-256] |
| 8.73 nM | 10.19 | COc1nc(-c2cccc(-c3cccc4c3CC[C@@H]4Oc3nc(OC)c(CN(C)[C@@H](C)C(=O)O)cc3C(F)(F)F)c2Cl)ccc1CNC[C@@H]1CCC(=O)N1 [B-257] |
| 5.9 nM | 10.19 | COc1nc(-c2cccc(-c3cccc4c3CC[C@@H]4Oc3nc(OC)c(CN(C)CC(=O)O)cc3C(F)(F)F)c2Cl)ccc1CNC[C@@H]1CCC(=O)N1 [B-258] |
| 18 nM | 10.19 | COc1nc(-c2cccc(-c3cccc4c3CC[C@@H]4Oc3nc(OC)c(CN4CC(C)(O)C4)cc3C(F)(F)F)c2Cl)ccc1CNC[C@@H]1CCC(=O)N1 [B-260] |
| 4.63 nM | 10.12 | COc1nc(-c2cccc(-c3cccc4c3CC[C@@H]4Oc3nc(OC)c(CNC[C@H]4C[C@](C)(O)C4)cc3C(F)(F)F)c2Cl)ccc1CNC[C@@H]1CCC(=O)N1 [B-261] |
| 2.2 nM | 10.19 | COc1nc(-c2cccc(-c3cccc4c3CC[C@@H]4Oc3nc(OC)c(CNC[C@H]4C[C@H](O)C4)cc3C(F)(F)F)c2Cl)ccc1CNC[C@@H]1CCC(=O)N1 [B-262] |
| 4.94 nM | 10.19 | COc1nc(-c2cccc(-c3cccc4c3CC[C@@H]4Oc3nc(OC)c(CN[C@H]4C[C@](C)(O)C4)cc3C(F)(F)F)c2Cl)ccc1CNC[C@@H]1CCC(=O)N1 [B-263] |
| 6.55 nM | 10.19 | COC[C@H](NCc1cc(C(F)(F)F)c(O[C@H]2CCc3c(-c4cccc(-c5ccc(CNC[C@@H]6CCC(=O)N6)c(OC)n5)c4Cl)cccc32)nc1OC)C(=O)O [B-264] |
| 14.2 nM | 10.10 | COc1nc(-c2cccc(-c3cccc4c3CC[C@@H]4Oc3nc(OC)c(CN[C@@H](C)C(N)=O)cc3C(F)(F)F)c2Cl)ccc1CNC[C@@H]1CCC(=O)N1 [B-265] |

| Compound | AC50 (PD-L1) | pIC50 (PD-1/PD-L1) |
| --- | --- | --- |
| COc1nc(-c2cccc(-c3cccc4c3CC[C@@H]4Oc3nc(OC)c(CN4C5CCC4(C(=O)O)CC5)cc3C(F)(F)F)c2Cl)ccc1CNC[C@@H]1CCC(=O)N1 [B-232] | 1.79 nM | 10.19 |
